Our source for the EC50, CC50 and AC50 values is ChEMBL document CHEMBL1201862, “PubChem BioAssay data set” (2004).

Usually EC50 stands for the concentration that produces a half-maximal response. As usually defined, the CC50 is the concentration giving 50% cytotoxicity. As usually defined, the AC50 is the concentration giving half of the maximal activity seen.

A short description of assay [1]: Luminescence Cell-Based Dose Confirmation HTS to Identify Activators of 5'UTR Stem-Loop Driven Alpha-Synuclein mRNA Translation in H4 Neuroglioblastoma Cells. [Related pubchem assays: 1829 (Project Summary), 1814 (Primary HTS)]. Format: functional.
Assay [2] can be described thus: Luminescence Cell-Based Dose Response HTS to Identify Activators of Luciferase Translation or Activity in H4 […] Cells. [Related pubchem assays: 1829 (Project Summary), 1814 (Primary HTS)]. Format: functional.
Assay [3] relates to H4. Put plainly: Luminescence Cell-Based Dose Response HTS to Identify Activators of 5'UTR Stem-Loop Driven Prion Protein mRNA Translation in H4 Neuroglioblastoma Cells. [Related pubchem assays: 1829 (Project Summary), 1814 (Primary HTS)]. The format is functional. Particulars: Homo sapiens.
A short description of assay [4]: cells. The format is functional, cell-based.
Assay [5] can be described thus: cells. Format: functional, cell-based. The source holds these as a separate data set.
The nature of assay [6]: HEp-2 cell cytotoxicity, dose response, cytotoxicity control for RSV inhibitor project, HTS (AID 2410). Format: functional. The conditions noted are these: human respiratory syncytial virus.
Assay [7] has as its system INS1. Kind of assay: beta cell apoptosis inhibitors, cytokine rescue, dose response, luminescence, retest (AID 449756).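 Further: cell death triggered by IL-1 beta plus TNF-alpha plus IFN-gamma mixture; protective hits raise ATP signal compared with cytokine alone wells.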 The format is functional, cell-based. The conditions noted are these: Rattus norvegicus.
The nature of assay [8]: Shn3 3'UTR reporter inhibitors, dose response, cell-based, Clone20 osteoblasts, firefly luciferase, cherry-picked (AID 624132).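 Further: firefly luciferase luminescence from reporter carrying the Shn3 3'UTR in osteoblasts.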 The format is functional.
Assay [9] is described as follows: control 3'UTR Renilla luciferase suppression, dose response, counter-screen for Shn3 inhibitor project, cell-based, Clone20-Shn3RL, cherry-picked (AID 624133). Format: functional.
Assay [10] can be described thus: HepG2 cell cytotoxicity, dose response, cytotoxicity control for Shn3 inhibitor project, CellTiter-Glo, cherry-picked (AID 624134). The format is functional, cell-based. A general note: ATP-based viability assays read luminescence as a measure of living cells.
Assay [11] addresses Cytochrome P450 2C19 (Homo sapiens, UniProt P33261). Put plainly: Cytochrome panel assay with activity outcomes. Panel member name: p450-cyp2c19 Compounds with AC50 equal or less than 10 uM are considered active. The format is functional. The conditions noted are these: read-out: AC50.
Assay [12] addresses Cytochrome P450 3A4 (Homo sapiens, UniProt P08684).
For assay [13], the target named is Cytochrome P450 2C9 (Homo sapiens, UniProt P11712).
Sequence of Cytochrome P450 2C9 (P11712 whole entry): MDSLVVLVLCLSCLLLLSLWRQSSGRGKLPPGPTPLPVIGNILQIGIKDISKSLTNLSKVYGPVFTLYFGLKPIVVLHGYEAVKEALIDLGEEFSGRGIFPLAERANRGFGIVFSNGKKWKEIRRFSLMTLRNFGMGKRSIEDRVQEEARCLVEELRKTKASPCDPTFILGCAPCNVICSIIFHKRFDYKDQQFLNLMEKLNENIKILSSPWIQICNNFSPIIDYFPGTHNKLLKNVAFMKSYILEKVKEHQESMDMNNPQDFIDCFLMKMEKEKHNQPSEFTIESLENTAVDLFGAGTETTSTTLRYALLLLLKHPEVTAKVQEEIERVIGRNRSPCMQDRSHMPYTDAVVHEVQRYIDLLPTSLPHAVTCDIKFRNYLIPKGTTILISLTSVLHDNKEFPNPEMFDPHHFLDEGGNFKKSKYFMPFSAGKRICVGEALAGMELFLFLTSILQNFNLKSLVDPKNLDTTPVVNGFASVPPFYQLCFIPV
Assay [14] concerns the target Cytochrome P450 2D6 (Homo sapiens, UniProt P10635).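 Further: CYP2D6 member of a cytochrome P450 panel assay.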
A short description of assay [15]: cytotoxicity toward NIH3T3 fibroblasts, dose response, counter-screen, cell-based, ATP luminescence, mouse fibroblasts (AID 2010).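 Further: cells exposed to compound for about 90 hours before reading.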 The format is functional. In general terms: Counterscreens check selectivity or assay interference.
Assay [16] is described as follows: inhibitors of intracellular T. cruzi replication, confirmation, NIH3T3 host cells, beta-gal luminescence (AID 2044).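 Further: intracellular parasites grown in NIH/3T3 mouse fibroblasts as host cells; luminescent beta-galactosidase reporter signal from transgenic T. cruzi replicating inside host cells; inhibitors lower the luminescence signal.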 Format: functional, cell-based.
Assay [17] is described as follows: inhibitors of SNCA 5'UTR-driven reporter translation, confirmation, H4 neuroglioma cells, luminescence (AID 1988). Format: functional, cell-based.
The nature of assay [18]: Luminescence Cell-Based Dose Response HTS to Identify Inhibitors of 5'UTR Stem-Loop Driven Prion Protein mRNA Translation in H4 Neuroglioblastoma Cells. [Related pubchem assays: 1827 (Project Summary), 1813 (Primary HTS)]. The format is functional.

Activity calls are given as the source filed them.

Sequence of Cytochrome P450 3A4 (P08684 whole entry): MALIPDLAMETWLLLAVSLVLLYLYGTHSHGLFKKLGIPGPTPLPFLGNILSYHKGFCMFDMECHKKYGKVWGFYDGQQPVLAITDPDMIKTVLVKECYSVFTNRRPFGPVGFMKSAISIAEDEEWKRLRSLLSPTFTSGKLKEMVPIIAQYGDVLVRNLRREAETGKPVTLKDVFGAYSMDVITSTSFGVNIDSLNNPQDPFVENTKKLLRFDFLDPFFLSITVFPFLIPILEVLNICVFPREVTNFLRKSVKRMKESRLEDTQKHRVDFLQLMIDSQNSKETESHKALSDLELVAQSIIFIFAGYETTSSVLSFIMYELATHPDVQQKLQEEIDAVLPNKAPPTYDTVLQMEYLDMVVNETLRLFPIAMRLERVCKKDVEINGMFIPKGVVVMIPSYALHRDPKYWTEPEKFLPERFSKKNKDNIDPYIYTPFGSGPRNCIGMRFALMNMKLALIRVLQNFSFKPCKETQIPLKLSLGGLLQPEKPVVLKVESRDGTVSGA
Sequence of Cytochrome P450 2C19 (P33261 whole entry): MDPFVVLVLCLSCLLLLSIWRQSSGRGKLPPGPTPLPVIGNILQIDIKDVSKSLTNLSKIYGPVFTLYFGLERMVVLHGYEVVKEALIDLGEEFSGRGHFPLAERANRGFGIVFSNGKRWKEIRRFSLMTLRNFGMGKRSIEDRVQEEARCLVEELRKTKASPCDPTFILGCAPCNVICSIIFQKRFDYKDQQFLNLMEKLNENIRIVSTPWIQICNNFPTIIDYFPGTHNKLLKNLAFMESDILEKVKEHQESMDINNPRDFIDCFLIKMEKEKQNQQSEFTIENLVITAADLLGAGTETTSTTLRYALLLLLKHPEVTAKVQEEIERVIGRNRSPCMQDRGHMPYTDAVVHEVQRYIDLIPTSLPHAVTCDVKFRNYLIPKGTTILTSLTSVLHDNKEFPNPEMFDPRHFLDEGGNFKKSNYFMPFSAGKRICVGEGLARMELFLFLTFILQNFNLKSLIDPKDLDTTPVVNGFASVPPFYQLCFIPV
Sequence of Cytochrome P450 2D6 (P10635 whole entry): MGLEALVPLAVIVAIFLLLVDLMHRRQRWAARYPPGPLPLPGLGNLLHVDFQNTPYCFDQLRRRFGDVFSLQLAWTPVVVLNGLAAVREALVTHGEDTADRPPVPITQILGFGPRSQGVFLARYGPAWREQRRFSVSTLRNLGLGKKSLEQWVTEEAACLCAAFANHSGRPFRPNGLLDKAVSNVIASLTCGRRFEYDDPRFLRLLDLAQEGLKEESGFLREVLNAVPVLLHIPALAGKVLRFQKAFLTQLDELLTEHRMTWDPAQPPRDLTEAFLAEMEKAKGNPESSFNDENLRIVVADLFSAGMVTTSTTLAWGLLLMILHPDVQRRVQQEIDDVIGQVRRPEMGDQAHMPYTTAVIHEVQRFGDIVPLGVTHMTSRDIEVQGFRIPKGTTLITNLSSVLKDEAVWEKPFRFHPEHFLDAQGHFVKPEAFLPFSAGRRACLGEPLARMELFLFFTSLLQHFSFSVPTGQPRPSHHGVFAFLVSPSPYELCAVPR

For the compound `CC(=O)C(Sc1nn(C)c(=S)s1)C(=O)Nc1ccccc1` (centres undefined), the EC50 was 23.9 µM (active) in [1], 12.4 µM (active) in [2] and 14.3 µM (active) in assay [3].

For `CC(=O)Nc1c([N+](=O)[O-])cc(C)c(Cl)c1[N+](=O)[O-]`, the EC50 in assay [4] and in [5] was > 350 µM (not active) throughout.

With `O=C(NS(=O)(=O)c1ccc2c(c1)OCCO2)c1ccccc1`, the EC50 in [4] and in assay [5] was > 350 µM (not active) throughout.

As for `Cc1nn(Cc2ccccc2Cl)c2sc(C(=O)NC(C)(C)C)cc12`, in assay [6], the CC50 was > 50 µM (active).

As to `c1ccc(-c2ccc(-c3csnn3)cc2)cc1`, the EC50 in assay [1] was 0.186 µM (active); in assay [2], 0.326 µM (active); in [3], 27.5 µM (active).

Consider `O=C(CN1CCCC1)Nc1nc(-c2ccc3c(c2)CCN3C(=O)c2ccccc2F)cs1`, for which the EC50 is 12.9 µM (active) in assay [1], 24.4 µM (active) in assay [2] and 16.7 µM (inconclusive) in [3].

As to `O=C(c1ccc(-c2ccc(Cl)cc2)o1)N1CCN(c2ccc([N+](=O)[O-])cc2Cl)CC1`, the AC50 in assay [7] was 3.58 µM (active). Also, the CC50 in assay [6] is 9.46 µM (active).

On to `CCCCNc1nc2c(c(=O)n(C)c(=O)n2C)n1Cc1cccc(OC)c1`, for which the AC50 in assay [8] was 0.284 µM (active); in assay [9] it was 1.13 µM (active); in assay [10] it was 3.87 µM (active).

As to `O=S(=O)(c1ccc(Cl)cc1)N1c2ccccc2Oc2nc3ccccc3nc21`, the EC50 in assay [1], in assay [2] and in assay [3] was > 120 µM (not active) throughout.

Take `Cc1oc(=O)c(NC(=O)c2ccc(Cl)cc2)cc1C(=O)c1ccccc1`: the results for the AC50 in assay [8] and in assay [10] were 32.1 µM (active) and > 70 µM (inactive), respectively.

With `CC(C)(C)c1ccc(OC(=O)N2CCOCC2)cc1`, the EC50 in [1] was 23.7 µM (active); in assay [2], > 120 µM (not active); in [3] it was 1.3 µM (active).

Consider `O=C(NCCc1ccccc1)C1CCN(S(=O)(=O)c2ccc(-n3cnnn3)cc2)CC1`, for which the half-maximal effective concentration (EC50) in [4] and in assay [5] was > 350 µM (not active) each time.

For the compound `Cc1ccnc(NC(=S)NC(=O)/C=C/c2ccco2)c1`, the EC50 was 0.458 µM (active) in assay [1], 9.64 µM (active) in assay [2] and > 120 µM (not active) in assay [3].

As for `Cn1c(SCc2ccc(F)cc2Cl)nc2ccccc2c1=O`, the AC50 was 8.65 µM (active) in [8], 3.09 µM (active) in [9] and 8.38 µM (active) in assay [10].

Consider `COc1ccc(-c2nc(-c3ccc(NC(=O)c4ccncc4)cc3)no2)cc1OC`, for which the AC50 is 2.36 µM (active) in [8], 3.85 µM (active) in assay [9] and 4.96 µM (active) in assay [10].

Take `Cc1noc(C)c1COC(=O)c1ccc(-c2nc3ccccc3s2)s1`: the EC50 in assay [1] is 0.414 µM (active); in assay [2], 0.245 µM (active); in [3] it was 13 µM (active).

Regarding `CCN(CC)c1ccc(NC(=O)CSc2nc(O)c3c(C)cc(C)nc3n2)cc1`, the EC50 in [4] and in assay [5] was > 350 µM (not active) each time.

Take `O=C(COC(=O)Cc1ccc(S(=O)(=O)N2CCCCC2)s1)Nc1ccc2c(c1)OCO2`: the EC50 in assay [4] and in [5] was > 350 µM (not active) throughout.

For the compound `COc1cc(C)ccc1OCCOc1ccccc1Cl`, the EC50 was 32.5 µM (active) in [1], 87.3 µM (active) in assay [2] and 18.6 µM (active) in assay [3].

Regarding `O=c1c2ccccc2nc2n1CC/C2=C\c1ccccc1[N+](=O)[O-]`, the AC50 in assay [11] was 3.98 µM (inconclusive); in assay [12] it was 10 µM (inconclusive).

Turning to `O=C(NCCc1csc(-c2cccc(F)c2)n1)c1ccco1`, the concentration giving a half-maximal response (EC50) in assay [4] and in assay [5] was > 350 µM (not active) in each case.

For the compound `CCOc1ccc(-c2nnc(N3CCCCC3)c3ccccc23)cc1`, the AC50 is 14.9 µM (active) in [8], 8.24 µM (active) in [9] and > 70 µM (inactive) in assay [10].

In the case of `O=C(O)c1ccccc1-c1ccccc1C(=O)Nc1ccccc1`, the AC50 was 28.2 µM (inconclusive) in assay [12] and 35.5 µM (inconclusive) in [13].

In the case of `CC1CCc2c(sc3nc(CSc4n[nH]c(N)n4)nc(O)c23)C1` (centres undefined), the values for the EC50 in [1], in assay [2] and in assay [3] were 15.5 µM (active), 27.2 µM (active) and 13.2 µM (active), respectively.

`CC(NC(=O)c1cc(COc2ccc3ncccc3c2)on1)c1ccc(F)cc1` (centres undefined): the AC50 is 2.28 µM (active) in [8], 4.52 µM (active) in assay [7], 2.2 µM (active) in assay [9] and 2.86 µM (active) in [10].

`O=C(CSc1nc(-c2ccc(F)cc2)cs1)N1CCOCC1`: the EC50 in [1] was 10.1 µM (active); in [2], 7.79 µM (active); in assay [3], 14.3 µM (active).

As to `Cn1nc(C(F)(F)F)cc1C(=O)NC1CCCCCC1`, the EC50 in assay [4] and in [5] was > 350 µM (not active) throughout.

As for `C/C(CCN1CCc2nc(-c3ccccc3)c(-c3ccccc3)cc2C1)=N\OC[C@@H](C)[C@H](OCc1ccccc1)C(C)C`, in assay [12], the AC50 is 3.98 µM (inconclusive).

For the compound `CN(C#N)c1nccc(-c2cccs2)n1`, the CC50 in [6] is 23.8 µM (active).

As for `CCC(C)[C@H](NC(=O)N1CC(=O)Nc2ccccc21)C(=O)Nc1ccccc1C` (some centres undefined), the EC50 in assay [1] is > 120 µM (not active); in [2] it was 27.5 µM (active); in assay [3], > 120 µM (not active).

With `CS(=O)(=O)c1ccccc1COC(=O)Nc1ccc(Cl)cc1`, the AC50 in assay [14] was 10 µM (inconclusive); in [12] it was 12.6 µM (inconclusive).

`CCn1nc(C)c(NC(=O)/C=C/c2ccc(OC)c(COc3ccc(Br)cc3)c2)c1C`: the EC50 in assay [15] is > 60 µM (not active); in assay [16], 2.52 µM (active); in assay [17], 13.4 µM (active); in [18], 23.7 µM (active). For the same compound, the CC50 in assay [6] is 31.6 µM (active).

For the compound `CCOC(=O)C1CCN(C(=O)C2CCCN(c3ncnc4c3nc3n4CCCCC3)C2)CC1` (centres undefined), the EC50 in [4] and in [5] was > 350 µM (not active) throughout.

`Cc1cc(N2CCCC2)ccc1/C=C1\NC(=S)N(C)C1=O`: the EC50 in [1] is 22.1 µM (active); in assay [2] it was 20 µM (active); in assay [3] it was 35.5 µM (active).

For the compound `CCc1ccc(N2CC(C)Cn3c2nc2c3c(=O)n(CCN3CCOCC3)c(=O)n2C)cc1` (centres undefined), the figures for the half-maximal activity concentration (AC50) in assay [12] and in assay [13] were 39.8 µM (inconclusive) and 0.178 µM (inconclusive), respectively.

With `c1ccc(C2=Nc3ccccc3SC2c2nc3ccccc3[nH]2)cc1` (centres undefined), the results for the EC50 in assay [1], in assay [2] and in assay [3] were 0.47 µM (active), 24.1 µM (active) and > 120 µM (not active), respectively.

For the compound `CC(Sc1nnc(COc2ccc([N+](=O)[O-])cc2)n1C)C(=O)O` (centres undefined), the EC50 in assay [4] and in assay [5] was > 350 µM (not active) each time.

As for `Cc1nc2cnc(N3CCNCC3)nc2n(-c2ccccc2)c1=O`, the half-maximal activity concentration (AC50) in assay [12] was 31.6 µM (inconclusive).

As for `COC(=O)CSc1nc2ccccn2c(=O)c1C=O`, the EC50 was 28.5 µM (active) in assay [1], 18.5 µM (active) in [2] and > 120 µM (inconclusive) in assay [3].

With `Cc1cc(-c2cccc([N+](=O)[O-])c2)nc2ccc3ccccc3c12`, the half-maximal activity concentration (AC50) in assay [11] is 20 µM (inconclusive); in assay [12] it was 3.16 µM (inconclusive).

For the compound `O=C1N/C(=C/c2cccs2)C(=O)N1Cc1ccc(Br)cc1`, the EC50 in [4] and in [5] was > 350 µM (not active) throughout.

For the compound `CCc1ccc(CNCc2ccc(OCC(O)CN(C)Cc3ccccc3)cc2)nc1` (centres undefined), the AC50 in assay [8] was 4.43 µM (active); in [9], 14.2 µM (active); in assay [10], 25 µM (active).

Take `O=C(O)c1cc(S(=O)(=O)N2CCCCC2)ccc1F`: the AC50 in assay [12] is 1.26 µM (inconclusive).

`Cc1cc(Sc2ccc([N+](=O)[O-])cn2)ccc1Br`: the AC50 in assay [9] is 31.4 µM (active); in [10] it was > 70 µM (inactive).

`Fc1cnc(N/N=C/c2ccc(-c3ccc(Br)cc3)o2)nc1N1CCOCC1`: the CC50 in assay [6] is 6.89 µM (active).

Take `Cc1cccc(C)c1OC[C@@H](N)C(C)C`: in assay [12], the AC50 is 20 µM (inconclusive).
